Reference: patent US4956389A, “Compounds having calcium blocking activity” (priority 1982, dated 1990)

Legend:
rats = test: Anti-arrythmic and antiischemic effect in rats (left coronary artery tied); type: in vivo, rat
Experimental: The left coronary artery, when it is tied, induces in the anesthetized rats a precocious arrythmia (30 minutes) particularly ectopic beats, ventricular tachycardia (VT), ventricular fibrillation (VF) according to the methods of Selye 1960, Clark 1980 and Parratt 1982.

[1] = test system: mitochondria of liver of rats; test: Study on the Ca2+-efflux in mitochondria of liver of rats; type: biochemical, rat; settings: 250 μM
From the text: The mitochondria of liver of rats prepared as in the preceding experiment were "charged" with Ca and subsequently, taken in a medium deprived of this ion. In the presence of an uncoupling agent or "Ruthenium Red", there is a flow of Ca^2+ ion from the mitochondria into the medium.
The results reported in Table 4 are expressed as the quantity of Ca transferred from the mitochondria per mg of protein per minute.

COc1ccc(CCN(C)CCc2ccc(OC)c(OC)c2)cc1OC [YS 035, N-methyl-N-bis-(3,4-dimethoxy-phenyl-ethyl)amine]
% Death (rats; 0.156 mg/Kg I.V.): 20%
Latent Time Death (rats; 0.156 mg/Kg I.V.): 26 min
Latent time (rats; 0.156 mg/Kg I.V.): 22
No. ectopic beats (rats; 0.156 mg/Kg I.V.): 907
VF (rats; 0.156 mg/Kg I.V.): 4 s
VF (%) (rats; 0.156 mg/Kg I.V.): 40%
VT (rats; 0.156 mg/Kg I.V.): 34 s
% Death (rats; 0.625 mg/Kg I.V.): 0%
Latent Time Death (rats; 0.625 mg/Kg I.V.): > 30 min
Latent time (rats; 0.625 mg/Kg I.V.): 30
No. ectopic beats (rats; 0.625 mg/Kg I.V.): 646
VF (rats; 0.625 mg/Kg I.V.): 0 s
VF (%) (rats; 0.625 mg/Kg I.V.): 0%
VT (rats; 0.625 mg/Kg I.V.): 9 s
% Death (rats; 1.25 mg/Kg I.V.): 0%
Latent Time Death (rats; 1.25 mg/Kg I.V.): > 30 min
Latent time (rats; 1.25 mg/Kg I.V.): 30
No. ectopic beats (rats; 1.25 mg/Kg I.V.): 684
VF (rats; 1.25 mg/Kg I.V.): 0 s
VF (%) (rats; 1.25 mg/Kg I.V.): 0%
VT (rats; 1.25 mg/Kg I.V.): 29 s
% Death (rats; 2.5 mg/Kg I.V.): 0%
Latent Time Death (rats; 2.5 mg/Kg I.V.): > 30 min
Latent time (rats; 2.5 mg/Kg I.V.): 26
No. ectopic beats (rats; 2.5 mg/Kg I.V.): 725
VF (rats; 2.5 mg/Kg I.V.): 9 s
VF (%) (rats; 2.5 mg/Kg I.V.): 20%
VT (rats; 2.5 mg/Kg I.V.): 34 s
% Death (rats; 5 mg/Kg I.V.): 0%
Latent Time Death (rats; 5 mg/Kg I.V.): > 30 min
Latent time (rats; 5 mg/Kg I.V.): 21
No. ectopic beats (rats; 5 mg/Kg I.V.): 1287
VF (rats; 5 mg/Kg I.V.): 5 s
VF (%) (rats; 5 mg/Kg I.V.): 50%
VT (rats; 5 mg/Kg I.V.): 62 s
% Death (rats; 10 mg/Kg I.V.): 0%
Latent Time Death (rats; 10 mg/Kg I.V.): > 30 min
Latent time (rats; 10 mg/Kg I.V.): 30
No. ectopic beats (rats; 10 mg/Kg I.V.): 474
VF (rats; 10 mg/Kg I.V.): 0 s
VF (%) (rats; 10 mg/Kg I.V.): 0%
VT (rats; 10 mg/Kg I.V.): 9 s
% Death (rats; 20 mg/Kg I.V.): 0%
Latent Time Death (rats; 20 mg/Kg I.V.): > 30 min
Latent time (rats; 20 mg/Kg I.V.): 20
No. ectopic beats (rats; 20 mg/Kg I.V.): 777
VF (rats; 20 mg/Kg I.V.): 10 s
VF (%) (rats; 20 mg/Kg I.V.): 50%
VT (rats; 20 mg/Kg I.V.): 22 s
dose-effect relationship (in words) (rats; above 10 mg/kg, endovenous): there is a regression of the results
onset of VF, VT and death (in words) (rats; endovenous, between 0.625 and 10 mg/kg): prevents the onset of the most serious arrythmia such as VF and VT and the death
uncoupling action (in words) [1]: does not exhibit this action
Ca2+-efflux induced by Ruthenium red ([1]; control 0.7): 0.6 n g ions/min. mg/prot
Ca2+-efflux induced by uncoupling agent ([1]; control 8.3): 5.4 n g ions/min. mg/prot
